Reference: PubChem BioAssay (NCI)
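Briefly, cells in 96-well plates were exposed to five compound concentrations for 48 h, and endpoints were estimated by linear interpolation. TGI denotes the concentration required for complete inhibition of growth.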

Tests used:
Experiment in all cases: NCI-60 cell line screen, 48 h
786-0 renal = system: 786-0 renal
A498 renal = system: A498 renal
A549 NSCLC = system: A549 NSCLC
ACHN renal = system: ACHN renal
BT-549 breast = system: BT-549 breast
CAKI-1 renal = system: CAKI-1 renal
CCRF-CEM leukemia = system: CCRF-CEM leukemia
COLO 205 colon = system: COLO 205 colon
DU-145 prostate = system: DU-145 prostate
EKVX NSCLC = system: EKVX NSCLC
HCC-2998 colon = system: HCC-2998 colon
HCT-116 colon = system: HCT-116 colon
HCT-15 colon = system: HCT-15 colon
HL-60(TB) leukemia = system: HL-60(TB) leukemia
HOP-62 NSCLC = system: HOP-62 NSCLC
HOP-92 NSCLC = system: HOP-92 NSCLC
HS 578T breast = system: HS 578T breast
HT29 colon = system: HT29 colon
IGROV1 ovarian = system: IGROV1 ovarian
K-562 leukemia = system: K-562 leukemia
KM12 colon = system: KM12 colon
LOX IMVI melanoma = system: LOX IMVI melanoma
M14 melanoma = system: M14 melanoma
MALME-3M melanoma = system: MALME-3M melanoma
MCF7 breast = system: MCF7 breast
MDA-MB-231 breast = system: MDA-MB-231 breast
MDA-MB-435 = system: MDA-MB-435
MDA-N = system: MDA-N
MOLT-4 leukemia = system: MOLT-4 leukemia
NCI-H226 lung = system: NCI-H226 lung
NCI-H23 lung = system: NCI-H23 lung
NCI-H460 lung = system: NCI-H460 lung
NCI-H522 lung = system: NCI-H522 lung
NCI/ADR-RES ovarian = system: NCI/ADR-RES ovarian
OVCAR-3 ovarian = system: OVCAR-3 ovarian
OVCAR-4 ovarian = system: OVCAR-4 ovarian
OVCAR-5 ovarian = system: OVCAR-5 ovarian
OVCAR-8 ovarian = system: OVCAR-8 ovarian
PC-3 prostate = system: PC-3 prostate
RPMI-8226 leukemia = system: RPMI-8226 leukemia
RXF 393 renal = system: RXF 393 renal
SF-268 CNS = system: SF-268 CNS
SF-295 CNS = system: SF-295 CNS
SF-539 CNS = system: SF-539 CNS
SK-MEL-2 melanoma = system: SK-MEL-2 melanoma
SK-MEL-28 melanoma = system: SK-MEL-28 melanoma
SK-MEL-5 melanoma = system: SK-MEL-5 melanoma
SK-OV-3 ovarian = system: SK-OV-3 ovarian
SN12C renal = system: SN12C renal
SNB-19 CNS = system: SNB-19 CNS
SNB-75 CNS = system: SNB-75 CNS
SR leukemia = system: SR leukemia
SW-620 colon = system: SW-620 colon
T-47D breast = system: T-47D breast
TK-10 renal = system: TK-10 renal
U251 CNS = system: U251 CNS
UACC-257 melanoma = system: UACC-257 melanoma
UACC-62 melanoma = system: UACC-62 melanoma
UO-31 renal = system: UO-31 renal

COC(=O)c1ccccc1C1CN=NC12Cc1cc(C)ccc1C2=O (configuration not stated)
TGI (786-0 renal): > 100 µM | TGI (A498 renal): > 100 µM | TGI (A549 NSCLC): > 100 µM | TGI (ACHN renal): > 100 µM | TGI (BT-549 breast): > 100 µM | TGI (CAKI-1 renal): > 100 µM | TGI (CCRF-CEM leukemia): > 100 µM | TGI (COLO 205 colon): > 100 µM | TGI (DU-145 prostate): > 100 µM | TGI (EKVX NSCLC): > 100 µM | TGI (HCC-2998 colon): > 100 µM | TGI (HCT-116 colon): > 100 µM | TGI (HCT-15 colon): > 100 µM | TGI (HL-60(TB) leukemia): > 100 µM | TGI (HOP-62 NSCLC): > 100 µM | TGI (HOP-92 NSCLC): > 100 µM | TGI (HS 578T breast): > 100 µM | TGI (HT29 colon): > 100 µM | TGI (IGROV1 ovarian): > 100 µM | TGI (K-562 leukemia): > 100 µM | TGI (KM12 colon): > 100 µM | TGI (LOX IMVI melanoma): > 100 µM | TGI (M14 melanoma): > 100 µM | TGI (MALME-3M melanoma): > 100 µM | TGI (MCF7 breast): 75.4 µM | TGI (MDA-MB-231 breast): > 100 µM | TGI (MDA-MB-435): > 100 µM | TGI (MDA-N): > 100 µM | TGI (MOLT-4 leukemia): > 100 µM | TGI (NCI-H226 lung): > 100 µM | TGI (NCI-H23 lung): > 100 µM | TGI (NCI-H460 lung): > 100 µM | TGI (NCI-H522 lung): > 100 µM | TGI (NCI/ADR-RES ovarian): > 100 µM | TGI (OVCAR-3 ovarian): > 100 µM | TGI (OVCAR-4 ovarian): > 100 µM | TGI (OVCAR-5 ovarian): > 100 µM | TGI (OVCAR-8 ovarian): > 100 µM | TGI (PC-3 prostate): > 100 µM | TGI (RPMI-8226 leukemia): > 100 µM | TGI (RXF 393 renal): > 100 µM | TGI (SF-268 CNS): > 100 µM | TGI (SF-295 CNS): > 100 µM | TGI (SF-539 CNS): > 100 µM | TGI (SK-MEL-2 melanoma): > 100 µM | TGI (SK-MEL-28 melanoma): > 100 µM | TGI (SK-MEL-5 melanoma): > 100 µM | TGI (SK-OV-3 ovarian): > 100 µM | TGI (SN12C renal): > 100 µM | TGI (SNB-19 CNS): > 100 µM | TGI (SNB-75 CNS): > 100 µM | TGI (SR leukemia): > 100 µM | TGI (SW-620 colon): > 100 µM | TGI (T-47D breast): > 100 µM | TGI (TK-10 renal): > 100 µM | TGI (U251 CNS): > 100 µM | TGI (UACC-257 melanoma): > 100 µM | TGI (UACC-62 melanoma): > 100 µM | TGI (UO-31 renal): > 100 µM

Nc1onc2c1Cc1c(noc1N)-c1ccccc1-2
TGI (786-0 renal): > 100 µM | TGI (A498 renal): 72.2 µM | TGI (A549 NSCLC): > 100 µM | TGI (ACHN renal): > 100 µM | TGI (BT-549 breast): 50.4 µM | TGI (CAKI-1 renal): > 100 µM | TGI (CCRF-CEM leukemia): > 100 µM | TGI (COLO 205 colon): > 100 µM | TGI (DU-145 prostate): > 100 µM | TGI (EKVX NSCLC): 66.1 µM | TGI (HCC-2998 colon): > 100 µM | TGI (HCT-116 colon): > 100 µM | TGI (HCT-15 colon): > 100 µM | TGI (HL-60(TB) leukemia): 49.7 µM | TGI (HOP-62 NSCLC): > 100 µM | TGI (HOP-92 NSCLC): 94.6 µM | TGI (HS 578T breast): 83.8 µM | TGI (HT29 colon): > 100 µM | TGI (IGROV1 ovarian): > 100 µM | TGI (K-562 leukemia): > 100 µM | TGI (KM12 colon): > 100 µM | TGI (LOX IMVI melanoma): > 100 µM | TGI (M14 melanoma): > 100 µM | TGI (MALME-3M melanoma): > 100 µM | TGI (MCF7 breast): > 100 µM | TGI (MDA-MB-231 breast): > 100 µM | TGI (MDA-MB-435): > 100 µM | TGI (MDA-N): > 100 µM | TGI (MOLT-4 leukemia): > 100 µM | TGI (NCI-H226 lung): > 100 µM | TGI (NCI-H23 lung): > 100 µM | TGI (NCI-H460 lung): > 100 µM | TGI (NCI-H522 lung): > 100 µM | TGI (NCI/ADR-RES ovarian): > 100 µM | TGI (OVCAR-3 ovarian): > 100 µM | TGI (OVCAR-4 ovarian): > 100 µM | TGI (OVCAR-5 ovarian): > 100 µM | TGI (OVCAR-8 ovarian): > 100 µM | TGI (PC-3 prostate): > 100 µM | TGI (RPMI-8226 leukemia): > 100 µM | TGI (RXF 393 renal): > 100 µM | TGI (SF-268 CNS): > 100 µM | TGI (SF-295 CNS): > 100 µM | TGI (SF-539 CNS): > 100 µM | TGI (SK-MEL-2 melanoma): > 100 µM | TGI (SK-MEL-28 melanoma): > 100 µM | TGI (SK-MEL-5 melanoma): > 100 µM | TGI (SK-OV-3 ovarian): > 100 µM | TGI (SN12C renal): > 100 µM | TGI (SNB-19 CNS): > 100 µM | TGI (SNB-75 CNS): 95.1 µM | TGI (SR leukemia): > 100 µM | TGI (SW-620 colon): > 100 µM | TGI (T-47D breast): > 100 µM | TGI (TK-10 renal): > 100 µM | TGI (U251 CNS): > 100 µM | TGI (UACC-257 melanoma): > 100 µM | TGI (UACC-62 melanoma): > 100 µM | TGI (UO-31 renal): > 100 µM

CCCCn1c2c(n(CCCC)c1=S)-c1c(n(CCCC)c(=S)n1CCCC)SSc1c(n(CCCC)c(=S)n1CCCC)-c1c(n(CCCC)c(=S)n1CCCC)SSc1c(n(CCCC)c(=S)n1CCCC)-c1c(n(CCCC)c(=S)n1CCCC)SS2
TGI (786-0 renal): > 50 µM | TGI (A498 renal): > 50 µM | TGI (A549 NSCLC): > 50 µM | TGI (ACHN renal): 11.1 µM | TGI (BT-549 breast): > 50 µM | TGI (CAKI-1 renal): > 40.2 µM | TGI (CCRF-CEM leukemia): > 14.7 µM | TGI (COLO 205 colon): 14.7 µM | TGI (DU-145 prostate): > 50 µM | TGI (EKVX NSCLC): > 50 µM | TGI (HCC-2998 colon): > 50 µM | TGI (HCT-116 colon): > 27.7 µM | TGI (HCT-15 colon): 30.4 µM | TGI (HL-60(TB) leukemia): 4.46 µM | TGI (HOP-62 NSCLC): > 50 µM | TGI (HOP-92 NSCLC): 3.53 µM | TGI (HS 578T breast): > 50 µM | TGI (HT29 colon): > 46.6 µM | TGI (IGROV1 ovarian): 8.64 µM | TGI (K-562 leukemia): > 50 µM | TGI (KM12 colon): > 50 µM | TGI (LOX IMVI melanoma): 13.3 µM | TGI (M14 melanoma): > 50 µM | TGI (MALME-3M melanoma): 6.19 µM | TGI (MCF7 breast): 48 µM | TGI (MDA-MB-231 breast): 8.67 µM | TGI (MDA-MB-435): > 42.1 µM | TGI (MDA-N): > 46 µM | TGI (MOLT-4 leukemia): > 50 µM | TGI (NCI-H226 lung): > 38.4 µM | TGI (NCI-H23 lung): > 50 µM | TGI (NCI-H460 lung): > 50 µM | TGI (NCI-H522 lung): 1.86 µM | TGI (NCI/ADR-RES ovarian): > 50 µM | TGI (OVCAR-3 ovarian): 14.6 µM | TGI (OVCAR-4 ovarian): > 19.7 µM | TGI (OVCAR-5 ovarian): 25.4 µM | TGI (OVCAR-8 ovarian): > 13.6 µM | TGI (PC-3 prostate): 18.9 µM | TGI (RPMI-8226 leukemia): > 50 µM | TGI (RXF 393 renal): > 50 µM | TGI (SF-268 CNS): > 30.2 µM | TGI (SF-295 CNS): > 37 µM | TGI (SF-539 CNS): > 50 µM | TGI (SK-MEL-2 melanoma): 29.3 µM | TGI (SK-MEL-28 melanoma): > 50 µM | TGI (SK-MEL-5 melanoma): > 36.6 µM | TGI (SK-OV-3 ovarian): > 50 µM | TGI (SN12C renal): > 50 µM | TGI (SNB-19 CNS): > 50 µM | TGI (SNB-75 CNS): > 50 µM | TGI (SR leukemia): > 50 µM | TGI (SW-620 colon): > 14.8 µM | TGI (T-47D breast): 9.51 µM | TGI (TK-10 renal): > 50 µM | TGI (U251 CNS): > 50 µM | TGI (UACC-257 melanoma): > 50 µM | TGI (UACC-62 melanoma): 20.3 µM | TGI (UO-31 renal): 16.5 µM
